Experimental data as given in patent publication US8685974B2 (Bayer CropScience AG, priority 2009, dated 2014).
Where two headings read alike, the source gives them in different places. Marks after values point to notes of the source that are not given here.

Legend:
Alternaria solani = test: Alternaria test (tomato) / protective; assay type: in vivo; details: 500 ppm active compound, protective spray, evaluated 7 days after inoculation
Method: Alternaria Test (Tomato)/Protective
Solvent: 49 parts by weight of N,N-dimethylformamide
Emulsifier: 1 part by weight of alkylaryl polyglycol ether
To produce a suitable preparation of active compound, 1 part by weight of active compound is mixed with the stated amounts of solvent and emulsifier, and the concentrate is diluted with water to the desired concentration.
To test for protective activity, young tomato plants are sprayed with the preparation of active compound at the stated application rate. […] The plants then remain at 96% rel. atmospheric humidity and a temperature of 20° C.
Evaluation is carried out 7 days after the inoculation. 0% means an efficacy which corresponds to that of the control, whereas an efficacy of 100% means that no infection is observed.

Pyrenophora teres = test: In vivo test on Pyrenophora teres (barley net blotch); details: dose of 500 ppm; barley plants; grading 12 days after contamination
Method: In Vivo Test on Pyrenophora teres (Barley Net Blotch)
The active ingredients tested are prepared by homogenization in a mixture of acetone/Tween/DMSO, then diluted with water to obtain the desired active material concentration.
Barley plants (Plaisant variety), sown on a 50/50 peat soil-pozzolana substrate in starter cups and grown at 12° C., are treated at the 1-leaf stage (10 cm tall) by spraying with the active ingredient prepared as described above.
Plants, used as controls, are treated with an aqueous solution not containing the active material.
After 24 hours, the plants are contaminated by spraying them with an aqueous suspension of Pyrenophora teres spores (12,000 spores per ml). The spores are collected from a 12-day-old culture. The contaminated barley plants are incubated for 24 hours at about 20° C. and at 100% relative humidity, and then for 12 days at 80% relative humidity.
Grading is carried out 12 days after the contamination, in comparison with the control plants.

Fusarium graminearum = assay type: cell-based; details: 50 μM; for % Inhibition of DON/AcDON at 50 μM: 7 days at 28° C.

Row | SMILES | efficacy (Alternaria solani) [%] | protection (Pyrenophora teres) [%] | log p (pH 2.7) | further results
1 | CCn1cc(-c2ccnc(NC(=O)[C@H](C)O)c2)c(-c2ccc(Cl)s2)n1 [Example 206] | 80 | 90 | 2.37^[b] | 
2 | CC(C)CC(C)n1cc(-c2ccncc2)c(-c2ccc(Cl)s2)n1 (centres unmarked) [Example 13] |  | 94 | 2.7^[b] | 
3 | CC(C)n1cc(-c2ccnc(NC(=O)Cc3ccccc3)c2)c(-c2ccc(Cl)s2)n1 [Example 245] |  | 100 | 3.94^[b] | 
4 | CCC(C)C(=O)Nc1cc(-c2cn(C(C)CC)nc2-c2ccc(Cl)s2)ccn1 (centres unmarked) [Example 228] | 70 | 90 | 4.05^[b] | % Inhibition of fungal growth at 50 μM (Fusarium graminearum): 49%; % Inhibition of DON/AcDON at 50 μM (Fusarium graminearum): 92%
5 | CCC(C)n1cc(-c2ccnc(N)n2)c(-c2ccc(Cl)s2)n1 (centres unmarked) [Example 193] |  | 95 |  | log p (pH 2.3): 2.3^[a]
6 | CC(=O)N(C(C)=O)c1cc(-c2cn(/C=C/F)nc2-c2ccc(Cl)s2)ccn1 [Example 297] | 90 | 80 | 3.09^[b] | % Inhibition of fungal growth at 50 μM (Fusarium graminearum): 0%; % Inhibition of DON/AcDON at 50 μM (Fusarium graminearum): 100%
7 | CC(C)n1cc(-c2ccnc(NC(=O)C(C)(C)C)c2)c(-c2ccc(Cl)s2)n1 [Example 233] | 90 | 90 | 3.87^[b] | 
8 | CC(C)Cn1cc(-c2ccncn2)c(-c2ccc(Cl)s2)n1 [Example 26] |  | 70 | 3.31^[b] | 
9 | CCn1cc(-c2ccnc(NC(=O)C(C)(C)O)c2)c(-c2ccc(Cl)s2)n1 [Example 212] | 70 | 80 | 2.73^[b] | 
10 | C[C@H](O)C(=O)Nc1cc(-c2cn(C)nc2-c2ccc(Cl)s2)ccn1 [Example 207] |  | 70 | 2.11^[b] | 
11 | CC(C)OC(=O)Nc1cc(-c2cn(C(C)C)nc2-c2ccc(Cl)s2)ccn1 [Example 242] | 90 | 70 | 3.85^[b] | 
12 | CCC(C)n1cc(-c2ccnc(NC(=O)N(C)C)c2)c(-c2ccc(Cl)s2)n1 (centres unmarked) [Example 227] | 80 | 95 | 2.19^[b] | % Inhibition of fungal growth at 50 μM (Fusarium graminearum): 100%; % Inhibition of DON/AcDON at 50 μM (Fusarium graminearum): 99%
13 | CCC(C)n1cc(-c2ccnc(NC(=O)Cc3ccccc3)c2)c(-c2ccc(Cl)s2)n1 (centres unmarked) [Example 224] | 80 | 95 | 4.35^[b] | 
14 | CC(C)OC(=O)Nc1cc(-c2cn(C)nc2-c2ccc(Cl)s2)ccn1 [Example 274] | 80 | 80 | 2.9^[b] | 
15 | CCn1cc(-c2ccnc(NC(=O)c3cccs3)c2)c(-c2ccc(Cl)s2)n1 [Example 267] |  | 80 | 3.48^[b] | % Inhibition of fungal growth at 50 μM (Fusarium graminearum): 47%; % Inhibition of DON/AcDON at 50 μM (Fusarium graminearum): 89%
16 | CC(C)n1cc(-c2ccnc(NC(=O)c3cccs3)c2)c(-c2ccc(Cl)s2)n1 [Example 241] |  | 80 | 3.96^[b] | 
17 | CC(C)n1cc(-c2ccnc(NC(=O)c3ccsc3)c2)c(-c2ccc(Cl)s2)n1 [Example 232] | 80 | 80 | 3.79^[b] | 
18 | CCC(C)n1cc(-c2ccnc(NC(=O)C(C)(C)O)c2)c(-c2ccc(Cl)s2)n1 (centres unmarked) [Example 210] | 90 | 70 | 4.24^[b] | 
19 | CCn1cc(-c2ccnc(NC(=O)Cc3ccccc3)c2)c(-c2ccc(Cl)s2)n1 [Example 262] | 80 | 90 | 3.48^[b] | 
20 | CCOC(=O)Nc1cc(-c2cn(C)nc2-c2ccc(Cl)s2)ccn1 [Example 271] |  | 90 | 2.56^[b] | % Inhibition of fungal growth at 50 μM (Fusarium graminearum): 20%; % Inhibition of DON/AcDON at 50 μM (Fusarium graminearum): 94%
21 | FC(F)Cn1cc(-c2ccncc2)c(-c2ccc(Cl)s2)n1 [Example 363] | 100 | 90 | 1.61^[b] | % Inhibition of fungal growth at 50 μM (Fusarium graminearum): 99%; % Inhibition of DON/AcDON at 50 μM (Fusarium graminearum): 99%
22 | CC(C)n1cc(-c2ccnc(NCC3CC3)n2)c(-c2ccc(Cl)s2)n1 [Example 183] |  | 70 |  | log p (pH 2.3): 3.02^[a]
23 | CCn1cc(-c2ccncc2)c(-c2ccc(Cl)s2)n1 [Example 57] |  | 95 | 1.5^[b] | logP value of the minor isomer (in parenthesis in column Isomer ratio [d]) (minor isomer, main value of the example measured by method [b], pH 2.7): (1.42)
24 | CCn1cc(-c2ccnc(NC(=O)c3ccsc3)c2)c(-c2ccc(Cl)s2)n1 [Example 254] | 70 | 90 | 3.29^[b] | 

Row | SMILES | efficacy (Alternaria solani) [%] | protection (Pyrenophora teres) [%] | log p (pH 2.7) | further results
25 | CCC(C)n1cc(-c2ccnc(NC(=O)c3ccsc3)c2)c(-c2ccc(Cl)s2)n1 (centres unmarked) [Example 230] |  | 70 | 4.21^[b] | 
26 | CCC(C)n1nc(-c2ccc(Cl)s2)c(-c2ccncc2)c1F (centres unmarked) [Example 213] | 80 | 70 | 2.61^[b] | 
27 | CCC(C)n1cc(-c2ccnc(NC(C)COC)n2)c(-c2ccc(Cl)s2)n1 (centres unmarked) [Example 186] |  | 70 |  | log p (pH 2.3): 3.21^[a]
28 | CCC(C)n1cc(-c2ccnc(NCC3CC3)n2)c(-c2ccc(Cl)s2)n1 (centres unmarked) [Example 187] |  | 70 |  | log p (pH 2.3): 3.41^[a]
29 | CCOC(=O)Nc1cc(-c2cn(C(C)CC)nc2-c2ccc(Cl)s2)ccn1 (centres unmarked) [Example 236] | 80 | 95 | 3.92^[b] | 
30 | Cn1cc(-c2ccnc(NC(=O)C3CCC3)c2)c(-c2ccc(Cl)s2)n1 [Example 275] |  | 90 | 2.52^[b] | % Inhibition of fungal growth at 50 μM (Fusarium graminearum): 95%; % Inhibition of DON/AcDON at 50 μM (Fusarium graminearum): 99%
31 | CC(C)(C)Cn1cc(-c2ccncc2)c(-c2ccc(Cl)s2)n1 [Example 24] |  | 90 | 2.39^[b] | 
32 | Cn1cc(-c2ccnc(NC(=O)c3ccccc3)c2)c(-c2ccc(Cl)s2)n1 [Example 272] |  | 70 | 3.09^[b] | 
33 | CCOC(=O)Nc1cc(-c2cn(CC)nc2-c2ccc(Cl)s2)ccn1 [Example 265] |  | 70 | 3^[b] | % Inhibition of fungal growth at 50 μM (Fusarium graminearum): 23%; % Inhibition of DON/AcDON at 50 μM (Fusarium graminearum): 87%
34 | CC(C)n1cc(-c2ccnc(NC(=O)C(C)(C)O)c2)c(-c2ccc(Cl)s2)n1 [Example 211] | 90 | 95 | 3.17^[b] | 
35 | Cn1cc(-c2ccnc(NC(=O)c3ccsc3)c2)c(-c2ccc(Cl)s2)n1 [Example 282] | 80 | 70 | 2.88^[b] | 
36 | Clc1ccc(-c2nn(C3CCCCC3)cc2-c2ccncc2)s1 [Example 11] |  | 89 | 2.54^[b] | 
37 | Cn1cc(-c2ccnc(NC(=O)C(C)(C)O)c2)c(-c2ccc(Cl)s2)n1 [Example 208] |  | 80 | 2.26^[b] | 
38 | CC(C)C(=O)Nc1nccc(-c2cn(C(C)C)nc2-c2ccc(Cl)s2)n1 [Example 174] |  | 90 |  | log p (pH 2.3): 3.29^[a]
39 | CCOC(=O)Nc1cc(-c2cn(C(C)C)nc2-c2ccc(Cl)s2)ccn1 [Example 259] | 90 | 80 | 3.46^[b] | 
40 | C#CCNc1nccc(-c2cn(C(C)CC)nc2-c2ccc(Cl)s2)n1 (centres unmarked) [Example 188] |  | 78 |  | log p (pH 2.3): 3.68^[a]
41 | CCCc1c(-c2ccnc(NC(=O)CC)c2)c(-c2sccc2C)nn1C [Example 166] |  | 80 | 2.29^[b] | logP value of the minor isomer (pH 2.7): 2.39^[b]); log p (pH 7.8): 2.71^[c];; logP value of the minor isomer (pH 7.8): (2.84^[c];
42 | CCC(C)n1cc(-c2ccnc(NC(C)=O)n2)c(-c2ccc(Cl)s2)n1 (centres unmarked) [Example 151] |  | 90 |  | log p (pH 2.3): 3^[a]
43 | CCC(C)n1cc(-c2ccnc(NC3CC3)n2)c(-c2ccc(Cl)s2)n1 (centres unmarked) [Example 195] |  | 95 |  | % Inhibition of fungal growth at 50 μM (Fusarium graminearum): 94%; % Inhibition of DON/AcDON at 50 μM (Fusarium graminearum): 99%; log p (pH 2.3): 2.9^[a]
44 | CC(=O)Nc1nccc(-c2cn(C(C)C)nc2-c2ccc(Cl)s2)n1 [Example 176] |  | 90 |  | log p (pH 2.3): 2.59^[a]
45 | CCC(C)n1cc(-c2ccnc(N(C(C)=O)C(C)=O)n2)c(-c2ccc(Cl)s2)n1 (centres unmarked) [Example 150] |  | 95 |  | log p (pH 2.3): 3.72^[a]
46 | CCn1cc(-c2ccnc(NC(=O)C(C)(C)C)c2)c(-c2ccc(Cl)s2)n1 [Example 255] | 90 | 100 | 3.37^[b] | 
47 | CC(C)n1cc(-c2ccnc(NC3CC3)n2)c(-c2ccc(Cl)s2)n1 [Example 177] | 90 | 95 |  | log p (pH 2.3): 2.59^[a]
48 | CCC(C)n1cc(-c2ccnc(NC(=O)c3cccs3)c2)c(-c2ccc(Cl)s2)n1 (centres unmarked) [Example 238] | 70 | 80 | 4.37^[b] | 
